Laboratory results: article PMC1989143, “An Expanded Set of Amino Acid Analogs for the Ribosomal Translation of Unnatural Peptides” (PLoS ONE, 2007)

Columns and labels:
ThrRS = target: T1, ThrRS (Escherichia coli, UniProt P0A8M3); assay: tRNA aminoacylation competition assay, MALDI-TOF MS; format: biochemical; details: 50000 µM; 50 µM natural Thr (Table 3), 6 mM ATP, 17 mM MgCl2, E. coli total tRNA, pH 7.4, 37 °C; competitive
T1 construct: gene thrS; His-tagged, recombinant, purified
Excerpt: tRNA aminoacylation competition assay, MALDI-TOF MS on ThrRS

PheRS = target: T2, PheRS (Escherichia coli, UniProt P08312); assay: as above; format: biochemical; details: 5000 µM; 5 µM natural Phe (Table 3), 6 mM ATP, 17 mM MgCl2, E. coli total tRNA, pH 7.4, 37 °C; competitive
T2 construct: gene pheS; His-tagged, recombinant, purified; wild-type enzyme; with Phenylalanine--tRNA ligase beta subunit
T2 sequence (P08312 whole entry): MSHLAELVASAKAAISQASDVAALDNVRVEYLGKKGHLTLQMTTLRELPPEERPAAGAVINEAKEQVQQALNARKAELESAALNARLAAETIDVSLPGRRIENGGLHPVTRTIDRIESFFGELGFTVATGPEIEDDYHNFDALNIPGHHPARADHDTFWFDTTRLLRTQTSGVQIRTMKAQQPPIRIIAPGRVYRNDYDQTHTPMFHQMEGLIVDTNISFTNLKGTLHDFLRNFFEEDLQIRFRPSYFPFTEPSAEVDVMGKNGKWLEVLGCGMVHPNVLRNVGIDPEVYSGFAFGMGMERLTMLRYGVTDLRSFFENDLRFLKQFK
T2 sequence (P07395 whole entry partner): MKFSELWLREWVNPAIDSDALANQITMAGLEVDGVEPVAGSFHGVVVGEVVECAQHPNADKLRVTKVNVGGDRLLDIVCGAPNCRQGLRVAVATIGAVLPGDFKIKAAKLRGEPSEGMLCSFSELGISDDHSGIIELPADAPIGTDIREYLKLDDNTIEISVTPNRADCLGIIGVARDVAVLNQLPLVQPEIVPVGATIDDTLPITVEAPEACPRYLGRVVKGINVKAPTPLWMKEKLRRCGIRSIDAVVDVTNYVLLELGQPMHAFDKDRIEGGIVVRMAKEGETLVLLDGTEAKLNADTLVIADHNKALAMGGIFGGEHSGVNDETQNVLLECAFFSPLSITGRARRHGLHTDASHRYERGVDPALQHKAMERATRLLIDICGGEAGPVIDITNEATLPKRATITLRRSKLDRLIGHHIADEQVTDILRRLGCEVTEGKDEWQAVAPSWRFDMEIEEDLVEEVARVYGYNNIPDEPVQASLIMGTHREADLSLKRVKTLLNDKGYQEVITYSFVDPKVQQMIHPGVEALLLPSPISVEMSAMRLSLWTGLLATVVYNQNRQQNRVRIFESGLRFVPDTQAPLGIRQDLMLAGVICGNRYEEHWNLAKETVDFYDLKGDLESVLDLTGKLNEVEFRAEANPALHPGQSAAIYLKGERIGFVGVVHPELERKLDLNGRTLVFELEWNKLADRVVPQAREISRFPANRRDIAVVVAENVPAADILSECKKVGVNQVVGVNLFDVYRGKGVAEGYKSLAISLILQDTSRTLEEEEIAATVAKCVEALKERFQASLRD
Excerpt: tRNA aminoacylation competition assay, MALDI-TOF MS on PheRS

T1 sequence (P0A8M3 whole entry): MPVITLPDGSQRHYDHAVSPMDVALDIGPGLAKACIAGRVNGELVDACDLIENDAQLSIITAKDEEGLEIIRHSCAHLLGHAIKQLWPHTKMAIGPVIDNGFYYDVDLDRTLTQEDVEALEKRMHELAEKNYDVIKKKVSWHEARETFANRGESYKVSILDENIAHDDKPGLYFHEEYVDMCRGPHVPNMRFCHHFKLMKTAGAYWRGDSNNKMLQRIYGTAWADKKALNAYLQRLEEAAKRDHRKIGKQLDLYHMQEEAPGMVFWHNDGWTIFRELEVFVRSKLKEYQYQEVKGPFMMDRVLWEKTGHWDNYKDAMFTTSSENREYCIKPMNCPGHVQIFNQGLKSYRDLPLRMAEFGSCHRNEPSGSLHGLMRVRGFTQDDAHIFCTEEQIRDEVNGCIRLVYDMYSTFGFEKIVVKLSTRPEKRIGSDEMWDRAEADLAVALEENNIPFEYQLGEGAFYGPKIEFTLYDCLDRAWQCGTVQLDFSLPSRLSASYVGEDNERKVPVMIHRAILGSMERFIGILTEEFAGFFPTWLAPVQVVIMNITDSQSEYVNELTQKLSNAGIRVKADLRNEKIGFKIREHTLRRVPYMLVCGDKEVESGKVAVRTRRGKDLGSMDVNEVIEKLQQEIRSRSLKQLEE

% Inhibition ^b (ThrRS) | SMILES | % Inhibition ^b (PheRS)
92 (range 2.9) % | CCC(O)C(N)C(=O)O (racemic) [P5, DL-β-hydroxy norvaline] | 
 | NC(Cc1ccccc1F)C(=O)O (centres unmarked) [A5, 2-fluoro Phe] | 78 (range 2.1) %
